System: T1, trypsin
T1 construct: gene PRSS1
Assay: casein digestion, absorbance at […] nm
Type: biochemical
Settings: casein 0.8%, 20 mM Tris-HCl pH 7.4, 37 °C, 20 min

**Q.** `CC(=O)Oc1ccccc1C(=O)O` [acetylsalicylic acid] was tested. Which “Acetylsalicylic Acid” value did it give?
**A.** 5.11 ± 0.97 µg/mL
